Data: patent US9499550B2 (BRISTOL-MYERS SQUIBB COMPANY, priority 2012, dated 2016)
Like-named read-outs stand apart in the source and are kept apart here.

What was measured:
[1] = tested on: HCV genotype 1a (H77 strain) replicon in HUH-7 cells; experiment: HCV replicon luciferase reporter assay, genotype 1a; type: cell-based; conditions: Hepatitis C virus, Huh-7, 72 h, 3 days incubation, read-out: LE_1a (EC50, range)
How it was run: (§1)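 Replicon inhibition for both genotypes was measured as Renilla luciferase signal (EnduRen, 7.5 μM final, 2 h) after 3-day, 37° C exposure of replicon-bearing HUH-7 cells in 4% FCS DMEM, 0.5% DMSO. The 1b construct carries S1179I; the 1a H77 construct carries P1496L and S2204I. Twenty-point, 3-fold dilutions were fitted four-parametrically for EC50, and CC50 was taken from multiplexed Cell Titer-Blue.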

[2] = tested on: HCV genotype 1b (Con1) replicon in HUH-7 cells; experiment: HCV replicon luciferase reporter assay, genotype 1b; type: cell-based; conditions: Hepatitis C virus, Huh-7, 72 h, 3 days incubation, read-out: LE_1b (EC50, range)
How it was run: as §1

[3] = HCV genotype 1a replicon luciferase assay, range class
[4] = HCV genotype 1b replicon luciferase assay, range class
[5] = HCV genotype 1a replicon luciferase
[6] = HCV genotype 1b replicon luciferase
[7] = GETYPE1A, HCV genotype 1a replicon luciferase
[8] = GETYPE1B, HCV genotype 1b replicon luciferase

| Compound | EC50 [1, 3] | EC50 [2, 4] | EC50 [1, 5] | EC50 [2, 6] | other results |
| --- | --- | --- | --- | --- | --- |
| CCCOc1cc2c(Cl)cccc2c(O[C@@H]2C[C@H]3C(=O)N[C@]4(C(=O)NS(=O)(=O)C5CC5)C[C@H]4/C=C\CC[C@H](C)C[C@@H](C)[C@H](NC(=O)OC(C)(C)C(F)(F)F)C(=O)N3C2)n1 [Compound 1083, 1,1,1-trifluoro-2-methylpropan-2-yl((2R,6S,7R,9S,13aS,14aR,16aS,Z)-2-((5-chloro-3-propoxyisoquinolin-1-yl)oxy)-14a-((cyclopropylsulfonyl)carbamoyl)-7,9-dimethyl-5,16-dioxo-1,2,3,5,6,7,8,9,10,11,13a,14,14a,15,16,16a-hexadecahydrocyclopropa[e]pyrrolo[1,2-a][1,4]diazacyclopentadecin-6-yl)carbamate] | 4.82 to 103 nM | < 5.46 nM |  |  |  |
| COc1ccc2c(O[C@@H]3C[C@H]4C(=O)N[C@]5(C(=O)NS(=O)(=O)C6CC6)C[C@H]5/C=C\CC[C@@H](C)C[C@@H](C)[C@H](NC(=O)OC(C)(C)C(F)(F)F)C(=O)N4C3)nc(-c3ccc(OC)c(Cl)c3)cc2c1 [Compound 3052, 1,1,1-trifluoro-2-methylpropan-2-yl((2R,6S,7R,9R,13aS,14aR,16aS,Z)-2-((3-(3-chloro-4-methoxyphenyl)-6-methoxyisoquinolin-1-yl)oxy)-14a-((cyclopropylsulfonyl)carbamoyl)-7,9-dimethyl-5,16-dioxo-1,2,3,5,6,7,8,9,10,11,13a,14,14a,15,16,16a-hexadecahydrocyclopropa[e]pyrrolo[1,2-a][1,4]diazacyclopentadecin-6-yl)carbamate] | < 5.46 nM | < 5.46 nM |  |  |  |
| CCOc1ccc2c(O[C@@H]3C[C@H]4C(=O)N[C@]5(C(=O)NS(=O)(=O)C6(C)CC6)C[C@H]5/C=C\CC[C@H](C)C[C@@H](C)[C@H](NC(=O)OCC5(C)CC5)C(=O)N4C3)nccc2c1 [Compound 5139, (1-methylcyclopropyl)methyl ((2R,6S,7R,9S,13aS,14aR,16aS,Z)-2-((6-ethoxyisoquinolin-1-yl)oxy)-7,9-dimethyl-14a-(((1-methylcyclopropyl)sulfonyl)carbamoyl)-5,16-dioxo-1,2,3,5,6,7,8,9,10,11,13a,14,14a,15,16,16a-hexadecahydrocyclopropa[e]pyrrolo[1,2-a][1,4]diazacyclopentadecin-6-yl)carbamate] |  |  | 4.82 to 103 nM | < 5.46 nM |  |
| [2H]C([2H])([2H])Oc1cnc(O[C@@H]2C[C@H]3C(=O)N[C@]4(C(=O)NS(=O)(=O)C5(C)CC5)C[C@H]4/C=C\CC[C@@H](C)C[C@@H](C)[C@H](NC(=O)OC(C)(C)C(F)(F)F)C(=O)N3C2)c2ccccc12 [Compound 5103, 1,1,1-trifluoro-2-methylpropan-2-yl((2R,6S,7R,9R,13aS,14aR,16aS,Z)-7,9-dimethyl-14a-(((1-methylcyclopropyl)sulfonyl)carbamoyl)-5,16-dioxo-2-((4-(trideuteromethoxy)isoquinolin-1-yl)oxy)-1,2,3,5,6,7,8,9,10,11,13a,14,14a,15,16,16a-hexadecahydrocyclopropa[e]pyrrolo[1,2-a][1,4]diazacyclopentadecin-6-yl)carbamate] |  |  | < 5.46 nM | < 5.46 nM |  |
| COc1ccc2nc(C(C)C)c(O[C@@H]3C[C@H]4C(=O)N[C@]5(C(=O)NS(=O)(=O)C6CC6)C[C@H]5/C=C\CC[C@@H](C)C[C@@H](C)[C@H](NC(=O)OC(C)(C)C(F)(F)F)C(=O)N4C3)nc2c1 [Compound 4317] |  |  |  |  | EC50 [1, 7]: 1.01 to 5 nM; EC50 [2, 8]: 1.01 to 5 nM |
| CC[C@@H]1C[C@H](C)CC/C=C\[C@@H]2C[C@@]2(C(=O)NS(=O)(=O)C2CC2)NC(=O)[C@@H]2C[C@@H](Oc3nc4ccc(OC)cc4nc3N(C)C)CN2C(=O)C1NC(=O)OC(C)(C)C(F)(F)F (some centres unmarked) [Compound 4305] |  |  |  |  | EC50 [1, 7]: 35 to 620 nM; EC50 [2, 8]: 5.01 to 35 nM |
| COc1ccc2c(O[C@@H]3C[C@H]4C(=O)N[C@]5(C(=O)NS(=O)(=O)C6CC6)C[C@H]5/C=C\CC[C@@H](C)C[C@@H](C)[C@H](NC(=O)O[C@@H]5C[C@@H]6C[C@@H]6C5)C(=O)N4C3)nccc2c1F [Compound 3152, (1R,3r,5S)-bicyclo[3.1.0]hexan-3-yl((2R,6S,7R,9R,13aS,14aR,16aS,Z)-14a-((cyclopropylsulfonyl)carbamoyl)-2-((5-fluoro-6-methoxyisoquinolin-1-yl)oxy)-7,9-dimethyl-5,16-dioxo-1,2,3,5,6,7,8,9,10,11,13a,14,14a,15,16,16a-hexadecahydrocyclopropa[e]pyrrolo[1,2-a][1,4]diazacyclopentadecin-6-yl)carbamate] | < 5.46 nM | < 5.46 nM |  |  |  |
| C[C@@H]1CC/C=C\[C@@H]2C[C@@]2(C(=O)NS(=O)(=O)C2CC2)NC(=O)[C@@H]2C[C@@H](Oc3nccc4ccc(F)cc34)CN2C(=O)[C@@H](NC(=O)OC2(C)CC2)[C@H](C)C1 [Compound 4073, 1-methylcyclopropyl (2R,6S,7R,9R,13aS,14aR,16aS,Z)-14a-(cyclopropylsulfonylcarbamoyl)-2-(7-fluoroisoquinolin-1-yloxy)-7,9-dimethyl-5,16-dioxo-1,2,3,5,6,7,8,9,10,11,13a,14,14a,15,16,16a-hexadecahydrocyclopropa[e]pyrrolo[1,2-a][1,4]diazacyclopentadecin-6-ylcarbamate] |  |  | < 5.46 nM | < 5.46 nM |  |
| COc1ccc2c(O[C@@H]3C[C@H]4C(=O)N[C@]5(C(=O)NS(=O)(=O)C6CC6)C[C@H]5/C=C\CC[C@@H](C)C[C@@H](C)[C@H](NC(=O)O[C@@H]5C[C@@H]6C[C@@H]6C5)C(=O)N4C3)nc(-c3ccc(OC)c(F)c3)cc2c1 [Compound 3058, (1R,3r,5S)-bicyclo[3.1.0]hexan-3-yl((2R,6S,7R,9R,13aS,14aR,16aS,Z)-14a-((cyclopropylsulfonyl)carbamoyl)-2-((3-(3-fluoro-4-methoxyphenyl)-6-methoxyisoquinolin-1-yl)oxy)-7,9-dimethyl-5,16-dioxo-1,2,3,5,6,7,8,9,10,11,13a,14,14a,15,16,16a-hexadecahydrocyclopropa[e]pyrrolo[1,2-a][1,4]diazacyclopentadecin-6-yl)carbamate] | < 5.46 nM | < 5.46 nM |  |  |  |
| CC(C)Oc1cc2c(Cl)cccc2c(O[C@@H]2C[C@H]3C(=O)N[C@]4(C(=O)NS(=O)(=O)C5(C)CC5)C[C@H]4/C=C\CC[C@H](C)C[C@@H](C)[C@H](NC(=O)OC(C)(C)C)C(=O)N3C2)n1 [Compound 1089, tert-butyl ((2R,6S,7R,9S,13aS,14aR,16aS,Z)-2-((5-chloro-3-isopropoxyisoquinolin-1-yl)oxy)-7,9-dimethyl-14a-(((1-methylcyclopropyl)sulfonyl)carbamoyl)-5,16-dioxo-1,2,3,5,6,7,8,9,10,11,13a,14,14a,15,16,16a-hexadecahydrocyclopropa[e]pyrrolo[1,2-a][1,4]diazacyclopentadecin-6-yl)carbamate] | 4.82 to 103 nM | < 5.46 nM |  |  |  |
| C[C@@H]1CC/C=C\[C@@H]2C[C@@]2(C(=O)NS(=O)(=O)C2(F)CC2)NC(=O)[C@@H]2C[C@@H](Oc3ncc(OC4CC4)c4ccccc34)CN2C(=O)[C@@H](NC(=O)OC(C)(C)C)[C@H](C)C1 [Compound 4225, tert-butyl (2R,6S,7R,9R,13aS,14aR,16aS,Z)-2-(4-cyclopropoxyisoquinolin-1-yloxy)-14a-(1-fluorocyclopropylsulfonylcarbamoyl)-7,9-dimethyl-5,16-dioxo-1,2,3,5,6,7,8,9,10,11,13a,14,14a,15,16,16a-hexadecahydrocyclopropa[e]pyrrolo[1,2-a][1,4]diazacyclopentadecin-6-ylcarbamate] |  |  | < 5.46 nM | < 5.46 nM |  |
| C[C@@H]1CC/C=C\[C@@H]2C[C@@]2(C(=O)NS(=O)(=O)C2(C)CC2)NC(=O)[C@@H]2C[C@@H](Oc3nccc4c(N5CCOCC5)cccc34)CN2C(=O)[C@@H](NC(=O)OC(C)(C)C)[C@H](C)C1 [Compound 5122, tert-butyl ((2R,6S,7R,9R,13aS,14aR,16aS,Z)-7,9-dimethyl-14a-(((1-methylcyclopropyl)sulfonyl)carbamoyl)-2-((5-morpholinoisoquinolin-1-yl)oxy)-5,16-dioxo-1,2,3,5,6,7,8,9,10,11,13a,14,14a,15,16,16a-hexadecahydrocyclopropa[e]pyrrolo[1,2-a][1,4]diazacyclopentadecin-6-yl)carbamate] |  |  | < 5.46 nM | < 5.46 nM |  |
| CC(C)Oc1cc2ccccc2c(O[C@@H]2C[C@H]3C(=O)N[C@]4(C(=O)NS(=O)(=O)C5(C)CC5)C[C@H]4/C=C\CC[C@@H](C)C[C@@H](C)[C@H](NC(=O)OC(C)(C)C(F)(F)F)C(=O)N3C2)n1 [Compound 6104, 1,1,1-trifluoro-2-methylpropan-2-yl((2R,6S,7R,9R,13aS,14aR,16aS,Z)-2-((3-isopropoxyisoquinolin-1-yl)oxy)-7,9-dimethyl-14a-(((1-methylcyclopropyl)sulfonyl)carbamoyl)-5,16-dioxo-1,2,3,5,6,7,8,9,10,11,13a,14,14a,15,16,16a-hexadecahydrocyclopropa[e]pyrrolo[1,2-a][1,4]diazacyclopentadecin-6-yl)carbamate] |  |  | 1.01 to 5 nM | 0.51 to 1 nM |  |
